pKi: −log10 of the molar value.

The text below walks through data of patent US8765433B2, “Alcohol dehydrogenases (ADH) useful for fermentive production of lower alkyl alcohols” (priority 2009, dated 2014).

Common to all, as to assay: isobutyraldehyde reduction kinetics (A340, initial rates)
Holding throughout (assay type): biochemical

Experiment [1] concerns the target Acinetobacter baumannii AYE ADH (AbADH), SEQ ID NO: 36. The source says: (§1) This example describes preparation of ADH-gene constructs for over-expression/purification and measurement of enzyme activities using a time-course assay. Horse-liver ADH (HLADH; A-6128) was purchased from Sigma. Achromobacter xylosoxidans SadB (SadB), Saccharomyces cerevisiae ADH6 (ScADH6) and ADH7 (ScADH7), Entamoeba histolytica ADH1 (EhADH1), Bos Taurus Aldehyde Reductase (BtARD), Beijerinckia indica subsp. Indica ATCC 9039 (BiADH), Clostridium beijerinckii ADH (CbADH), Rana perezi ADH8 (RpADH8), Rattus norvegicus ADH1 (RnADH1), Thermus sp. ATN1 ADH (TADH), Phenylobacterium zucineum HLK1 ADH (PzADH), Methylocella silvestris BL2 ADH (MsADH), Acinetobacter baumannii AYE ADH (AbADH), Geobacillus sp. WCH70 ADH (GbADH), Vanderwaltozyma polyspora DSM 70294 ADH (VpADH), Mucor circinelloides ADH (McADH), and Rhodococcus erythropolis PR4ADH (ReADH) were the candidates for which subclones were prepared for protein expression and purification.
(§2) As a routine practice, the crude extracts and purified proteins were assayed for butanol oxidation activity, in order to ensure that the recombinant proteins were active throughout the purification process. […] Alcohol oxidation activities were carried out in 50 mM sodium phosphate buffer at pH 8.8 and aldehyde reduction reactions were assayed in 190 mM potassium phosphate buffer at pH 7.0. Depending on the nature of reaction being carried out, the enzyme and cofactor stocks were diluted in the reaction buffers at the respective pHs. Either buffer or cell extract prepared from the proprietary E. coli strain (with no ADH plasmid) was used as the negative control for assays with purified protein and cell-free extracts, respectively.
(§3) Kinetic constants of the ADH enzymes were calculated and compared to identify those candidate ADH enzymes with the most desirable properties for the conversion of isobutyraldehyde to isobutanol in the last step of the engineered pathway for isobutanol production. The assays for determining the kinetic constants were carried out using initial rates from the assays described above. […] The concentration of a given enzyme was such that it was conducive for the measurement of initial velocities over a 1-min time course. For each enzyme, Michaelis-Menten plots were generated with a broad range of substrate concentrations. Rough estimates of KM were obtained, based on which the assays were redesigned so as to use substrate concentrations in the range 0.5 to 10 times the KM value, to be able to obtain the appropriate kinetic constants. […] When calculating the KI for isobutanol, the same reactions were carried out in the presence of varying concentrations of isobutanol (generally 0-535 mM) in the reaction (see FIG. 7, for example). Reactions with isobutanol substrate were performed at 30° C. in 50 mM Sodium phosphate buffer, pH 8.8, containing 7.5 mM NAD. The Enzyme kinetics module (Version 1.3) of SigmaPlot 11 (Systat Software, Inc.) was used to fit data to Michaelis-Menten equations and calculate the kinetic constants. The kcat/KM is derived from the individual numbers of kcat and KM and not an experimentally determined value. The ratios of the KM, KI, and kcat/KM for each candidate enzyme as compared to the same parameter for SadB are given in Table 9.
(§4) Seven additional candidate ADH enzymes were synthesized, expressed, and assayed according to methods such as described in Example 2. Kinetic constants obtained for the indicated ADH enzymes (Phenylobacterium zucineum HLK1 ADH (PzADH), Methylocella silvestris BL2 ADH (MsADH), Acinetobacter baumannii AYE ADH (AbADH), Geobacillus sp. WCH70 ADH (GbADH), and Mucor circinelloides ADH (McADH)) are given in Table 8. A comparison of KM, KI, and kcat/KM for each candidate enzyme as compared to the same parameter for SadB are given in Table 9 as a percentage of the values determined (Table 7) for SadB. […]

In experiment [2] the target is T1, Geobacillus sp. WCH70 ADH (GbADH), SEQ ID NO: 37 (Parageobacillus toebii, UniProt A0A6G9J337).
T1 construct: 346 aa, begins […]) in pBADHisA, N-terminal His tag, expressed in E. coli, purified
T1 sequence (A0A6G9J337 entry or part of it): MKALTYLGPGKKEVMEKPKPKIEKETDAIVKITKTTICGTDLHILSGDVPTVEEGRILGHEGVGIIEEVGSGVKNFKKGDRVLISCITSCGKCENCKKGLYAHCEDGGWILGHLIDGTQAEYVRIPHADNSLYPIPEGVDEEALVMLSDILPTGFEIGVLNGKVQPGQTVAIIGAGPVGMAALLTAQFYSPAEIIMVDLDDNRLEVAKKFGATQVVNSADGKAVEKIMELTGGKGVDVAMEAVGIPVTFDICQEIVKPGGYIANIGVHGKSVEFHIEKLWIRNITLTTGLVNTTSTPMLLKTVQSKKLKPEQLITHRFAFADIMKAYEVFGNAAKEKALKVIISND
Excerpt: as §1, §2, §3, §4

The target in experiment [3] is T2, Phenylobacterium zucineum HLK1 ADH (PzADH), SEQ ID NO: 34 (Phenylobacterium zucineum, UniProt B4RIA4).
T2 sequence (B4RIA4 1-345): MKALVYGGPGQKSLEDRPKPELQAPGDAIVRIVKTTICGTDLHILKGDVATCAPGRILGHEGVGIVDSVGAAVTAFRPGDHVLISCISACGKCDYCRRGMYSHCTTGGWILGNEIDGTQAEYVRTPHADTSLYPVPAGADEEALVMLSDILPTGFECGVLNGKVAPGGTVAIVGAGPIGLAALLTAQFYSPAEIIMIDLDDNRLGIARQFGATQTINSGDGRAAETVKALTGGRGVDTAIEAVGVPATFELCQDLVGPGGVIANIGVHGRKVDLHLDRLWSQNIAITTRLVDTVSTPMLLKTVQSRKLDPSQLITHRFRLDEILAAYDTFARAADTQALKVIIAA
Excerpt: as §1, §2, §3, §4

The target in experiment [4] is T3, Methylocella silvestris BL2 ADH (MsADH), SEQ ID NO: 35 (Methylocella silvestris, UniProt B8ELZ1).
T3 sequence (B8ELZ1 1-345): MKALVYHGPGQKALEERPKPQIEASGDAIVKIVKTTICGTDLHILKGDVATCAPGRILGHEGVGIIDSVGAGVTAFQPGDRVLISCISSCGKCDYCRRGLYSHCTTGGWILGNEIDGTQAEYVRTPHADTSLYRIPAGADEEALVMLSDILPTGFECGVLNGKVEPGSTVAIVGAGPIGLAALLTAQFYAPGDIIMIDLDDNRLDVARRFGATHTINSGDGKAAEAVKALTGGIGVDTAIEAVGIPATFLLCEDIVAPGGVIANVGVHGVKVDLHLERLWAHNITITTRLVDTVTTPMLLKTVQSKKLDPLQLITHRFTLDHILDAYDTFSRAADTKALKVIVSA
Excerpt: as §1, §2, §3, §4

For experiment [5], the target named is Mucor circinelloides ADH (McADH), SEQ ID NO: 39 (Mucor circinelloides, UniProt Q66UT6).
Sequence of Mucor circinelloides ADH (McADH), SEQ ID NO: 39 (Q66UT6 entry or part of it): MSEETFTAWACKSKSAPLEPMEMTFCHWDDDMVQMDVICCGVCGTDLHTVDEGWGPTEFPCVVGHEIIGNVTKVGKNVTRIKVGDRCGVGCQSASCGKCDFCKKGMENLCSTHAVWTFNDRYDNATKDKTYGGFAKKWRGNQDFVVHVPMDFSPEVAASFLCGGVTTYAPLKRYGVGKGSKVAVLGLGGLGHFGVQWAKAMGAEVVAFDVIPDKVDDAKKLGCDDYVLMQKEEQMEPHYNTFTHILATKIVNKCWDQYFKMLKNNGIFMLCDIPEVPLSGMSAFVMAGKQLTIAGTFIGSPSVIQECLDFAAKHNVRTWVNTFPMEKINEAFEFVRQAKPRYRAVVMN
Excerpt: as §1, §2, §3, §4

Regarding `CC(C)CO` [isobutanol, 2-methylpropan-1-ol], the “KI as a percentage of the same parameter for SadB” value in experiment [1] (relative to SadB) was found to be 169%; in experiment [2] (relative to SadB), 7%; in experiment [3] (relative to SadB), 7%; in experiment [4] (relative to SadB) it was 11%; in experiment [5] (relative to SadB), 44%. Further, the pKi was 1.89 in experiment [2] (isobutyraldehyde reduction, varying isobutanol, NADPH specific); 1.89 in experiment [3] (read-out: KI (Isobutanol)); 1.72 in experiment [4] (read-out: KI (Isobutanol)); 1.10 in experiment [5] (read-out: KI (Isobutanol)).
With `CC(C)C=O` [isobutyraldehyde], the Michaelis-Menten constant (Km) in experiment [1] (30° C., pH 7.0, NADH specific, read-out: KM (Isobutanal)) was 10 mM. In addition, the catalytic constant (kcat) in experiment [1] (isobutyraldehyde reduction, 30° C., pH 7.0, NADH specific) came to 99 s⁻¹. Moreover, the “KM as a percentage of the same parameter for SadB” value came out at 1020% in experiment [1] (relative to SadB); 44% in experiment [2] (relative to SadB); 10% in experiment [3] (relative to SadB); 6% in experiment [4] (relative to SadB); 3000% in experiment [5] (relative to SadB). The “kcat as a percentage of the same parameter for SadB” value turned out to be 91% in experiment [1] (relative to SadB); 29% in experiment [2] (relative to SadB); 28% in experiment [3] (relative to SadB); 30% in experiment [4] (relative to SadB); 138% in experiment [5] (relative to SadB). Moreover, the “kcat/KM as a percentage of the same parameter for SadB” value in experiment [1] (relative to SadB) was 9%; in experiment [2] (relative to SadB) it was 69%; in experiment [3] (relative to SadB) it was 243%; in experiment [4] (relative to SadB) it was 532%; in experiment [5] (relative to SadB), 5%.

As a reminder, the pKi is −log10 of the Ki, conventionally taken in molar units. As a reminder, the Km is the concentration of substrate that gives half-maximal velocity. For orientation: kcat means the maximal rate divided by the concentration of active sites.
